Target: Cyclin-dependent kinase 2 (Homo sapiens) (UniProt P24941)
Assay: Inhibition of CDK2

Compound | IC50
COc1ccc2sc3c(c2c1)SCCNC3=O | 150 nM
CC(C)COc1ccc2sc3c(c2c1)NC[C@@H](C)NC3=O [(R)-3-Isobutoxy-7-methyl-5,6,7,8-tetrahydro-10-thia-5,8-diaza-benzo[a]azulen-9-one] | 11 nM
C[C@@H]1CNc2c(sc3ccc(O)cc23)C(=O)N1 [(R)-3-Hydroxy-7-methyl-5,6,7,8-tetrahydro-10-thia-5,8-diaza-benzo[a]azulen-9-one] | 26 nM
COc1ccc2sc3c(c2c1)NCCNC3=O [3-Methoxy-5,6,7,8-tetrahydro-10-thia-5,8-diaza-benzo[a]azulen-9-one] | 160 nM
C[C@@H]1CNc2c(sc3ccc(OCC4CC4)cc23)C(=O)N1 [(R)-3-Cyclopropylmethoxy-7-methyl-5,6,7,8-tetrahydro-10-thia-5,8-diaza-benzo[a]azulen-9-one] | 52 nM
COc1ccc2sc3c(c2c1)CCCNC3=O [3-Methoxy-5,6,7,8-tetrahydro-10-thia-8-aza-benzo[a]azulen-9-one] | 360 nM
COCCOc1ccc2sc3c(c2c1)NC[C@@H](C)NC3=O [(R)-3-(2-Methoxy-ethoxy)-7-methyl-5,6,7,8-tetrahydro-10-thia-5,8-diaza-benzo[a]azulen-9-one] | 81 nM
COc1cccc(COc2ccc3sc4c(c3c2)NC[C@@H](C)NC4=O)c1 [(R)-3-(3-Methoxy-benzyloxy)-7-methyl-5,6,7,8-tetrahydro-10-thia-5,8-diaza-benzo[a]azulen-9-one] | 64 nM
COC(=O)COc1ccc2sc3c(c2c1)NC[C@@H](C)NC3=O [((R)-7-Methyl-9-oxo-6,7,8,9-tetrahydro-5H-10-thia-5,8-diaza-benzo[a]azulen-3-yloxy)-acetic acid methyl ester] | 3090 nM

Further lines, results first:

IC50 | Compound
25 nM | COc1ccc2sc3c(c2c1)NC[C@@H](CO)NC3=O [(S)-7-Hydroxymethyl-3-methoxy-5,6,7,8-tetrahydro-10-thia-5,8-diaza-benzo[a]azulen-9-one]
3100 nM | CCNC[C@@H]1CNc2c(sc3ccc(OC)cc23)C(=O)N1 [(R)-7-Ethylaminomethyl-3-methoxy-5,6,7,8-tetrahydro-10-thia-5,8-diaza-benzo[a]azulen-9-one]
3170 nM | COc1ccc2sc3c(c2c1)NC[C@@H](CN(C)Cc1ccccc1)NC3=O [(S)-7-[(Benzyl-methyl-amino)-methyl]-3-methoxy-5,6,7,8-tetrahydro-10-thia-5,8-diaza-benzo[a]azulen-9-one]
2700 nM | COc1ccc2sc3c(c2c1)NC[C@@H](CNCc1ccccc1)NC3=O [(R)-7-(Benzylamino-methyl)-3-methoxy-5,6,7,8-tetrahydro-10-thia-5,8-diaza-benzo[a]azulen-9-one]
2600 nM | CCCNC[C@@H]1CNc2c(sc3ccc(OC)cc23)C(=O)N1 [(R)-3-Methoxy-7-propylaminomethyl-5,6,7,8-tetrahydro-10-thia-5,8-diaza-benzo[a]azulen-9-one]
146 nM | COc1ccc2sc3c(c2c1)NC[C@@H](CN)NC3=O [(R)-7-Aminomethyl-3-methoxy-5,6,7,8-tetrahydro-10-thia-5,8-diaza-benzo[a]azulen-9-one]

Source: BindingDB's records for doi:10.1016/j.bmcl.2009.02.015 (Pfizer, 2009)
